Key:
[1] = test system: duck salad; assay: Test C flooded paddy test; type: in vivo, Heteranthera limosa; conditions: Flood
Summary of the method: (§1)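 Test compounds are applied straight into paddy water held 3 cm above the soil surface, with that flood maintained for the whole test. After 13 to 15 days in the greenhouse, each species is scored visually relative to controls.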

[2] = test system: crabgrass; assay: Test A pre-/postemergence greenhouse test; type: in vivo, Digitaria sanguinalis; conditions: for Plant response rating, Crabgrass, Large: 0 to 100 scale where 0 is no effect and 100 is complete control; for Crabgrass, Large plant response rating: 0 to 100 scale
Summary of the method: (§2)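 Test compounds in non-phytotoxic solvent with surfactant were applied as a preemergence soil spray to seeded loam/sand pots and, concurrently, postemergence to plants at 2–10 cm, one- to two-leaf stage. About ten days in greenhouse, then injury visually rated against untreated controls.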

[3] = test system: velvetleaf; assay: Test A pre-/postemergence greenhouse test; type: in vivo, Abutilon theophrasti; conditions: for Plant response rating, Velvetleaf: 0 to 100 scale where 0 is no effect and 100 is complete control; for Velvetleaf plant response rating: 0 to 100 scale
Summary of the method: as §2

[4] = test system: barnyardgrass; assay: Test A pre-/postemergence greenhouse test; type: in vivo, Echinochloa crus-galli; conditions: for Plant response rating, Barnyardgrass: 0 to 100 scale where 0 is no effect and 100 is complete control; for Barnyardgrass plant response rating: 0 to 100 scale
Summary of the method: as §2

[5] = test system: soybean; assay: Test C pre-/postemergence test; type: in vivo, Glycine max; conditions: for Plant response rating, Soybean: 31 g ai/ha, scale 0 to 100 (0 no effect, 100 complete control)
Summary of the method: (§3)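 Compounds in a non-phytotoxic solvent with surfactant applied preemergence to seeded pots and, at the same time, postemergence to plants 2–18 cm tall (1- to 4-leaf stage). Paddy tests: pots flooded to 3 cm, compound applied into the water, depth held throughout.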

[6] = test system: green foxtail; assay: Test C pre-/postemergence test; type: in vivo, Setaria viridis; conditions: for Plant response rating, Foxtail, Green: 31 g ai/ha, scale 0 to 100 (0 no effect, 100 complete control)
Summary of the method: as §3

[7] = test system: johnsongrass; assay: Test C pre-/postemergence test; type: in vivo, Sorghum halepense; conditions: for Plant response rating, Johnsongrass: 31 g ai/ha, scale 0 to 100 (0 no effect, 100 complete control)
Summary of the method: as §3

[8] = test system: yellow nutsedge; assay: Test C pre-/postemergence test; type: in vivo, Cyperus esculentus; conditions: for Plant response rating, Nutsedge, Yellow: 31 g ai/ha, scale 0 to 100 (0 no effect, 100 complete control)
Summary of the method: as §3

[9] = test system: umbrella sedge; assay: Test C flooded paddy test; type: in vivo, Cyperus difformis; conditions: Flood
Summary of the method: as §1

[10] = test system: Italian ryegrass; assay: Test C pre-/postemergence test; type: in vivo, Lolium multiflorum; conditions: for Plant response rating, Ryegrass, Italian: 31 g ai/ha, scale 0 to 100 (0 no effect, 100 complete control)
Summary of the method: as §3

[11] = test system: bermudagrass; assay: Test C pre-/postemergence test; type: in vivo, Cynodon dactylon; conditions: for Plant response rating, Bermudagrass: 31 g ai/ha
Summary of the method: as §3

[12] = test system: Goosegrass; assay: Test C pre-/postemergence test; type: in vivo, Eleusin indica; conditions: for Plant response rating, Goosegrass: 31 g ai/ha, scale 0 to 100 (0 no effect, 100 complete control)
Summary of the method: as §3

[13] = test system: pigweed; assay: Test C pre-/postemergence test; type: in vivo, Amaranthus retroflexus; conditions: for Plant response rating, Pigweed: 31 g ai/ha, scale 0 to 100 (0 no effect, 100 complete control)
Summary of the method: as §3

[14] = test system: corn; assay: Test A pre-/postemergence greenhouse test; type: in vivo, Zea mays; conditions: for Plant response rating, Corn: 0 to 100 scale where 0 is no effect and 100 is complete control; for Corn plant response rating: 0 to 100 scale
Summary of the method: as §2

[15] = test system: barnyardgrass; assay: Test C flooded paddy test; type: in vivo, Echinochloa crus-galli; conditions: Flood
Summary of the method: as §1

[16] = test system: crabgrass; assay: Test C pre-/postemergence test; type: in vivo, Digitaria sanguinalis; conditions: for Plant response rating, Crabgrass, Large: 31 g ai/ha, scale 0 to 100 (0 no effect, 100 complete control)
Summary of the method: as §3

[17] = test system: corn; assay: Test C pre-/postemergence test; type: in vivo, Zea mays; conditions: for Plant response rating, Corn: 31 g ai/ha, scale 0 to 100 (0 no effect, 100 complete control)
Summary of the method: as §3

[18] = 62 g ai/ha, scale 0 to 100 (0 no effect, 100 complete control)
[19] = 250 g ai/ha, scale 0 to 100, 0 no effect, 100 complete control, 13 to 15 days
[20] = Postemergence, 500 g ai/ha, 0 is no effect, 100 is complete control
[21] = Preemergence, 125 g ai/ha, 0 no effect, 100 complete control
[22] = 62 g ai/ha, Preemergence, scale 0 to 100
[23] = 125 g ai/ha, preemergence, scale 0 (no effect) to 100 (complete control)
[24] = preemergence, 250 g ai/ha, scale 0 (no effect) to 100 (complete control)
[25] = 62 g ai/ha, Preemergence, scale 0 to 100 (0 no effect, 100 complete control)
[26] = Preemergence, scale 0 to 100 (0 no effect, 100 complete control)

## Cn1nc(C(F)(F)F)c(C[S+]([O-])c2cccc[n+]2[O-])c1OCC(F)F (stereo not drawn) [Compound 75]
[1]; [18]
  Plant response rating, Ducksalad: 40
[1]; [19]
  Plant response rating, Ducksalad: 85
[2]; Postemergence, 125 g ai/ha
  Plant response rating, Crabgrass, Large: 70
[2]; [20]
  Crabgrass, Large plant response rating: 80
[2]; [21]
  Crabgrass, Large plant response rating: 70
[2]; Preemergence, 500 g ai/ha
  Plant response rating, Crabgrass, Large: 100
[3]; Postemergence, 125 g ai/ha
  Plant response rating, Velvetleaf: 40
[3]; [20]
  Velvetleaf plant response rating: 80
[3]; [21]
  Velvetleaf plant response rating: 60
[3]; Preemergence, 500 g ai/ha
  Plant response rating, Velvetleaf: 100
[4]; Postemergence, 125 g ai/ha
  Plant response rating, Barnyardgrass: 60
[4]; [20]
  Barnyardgrass plant response rating: 80
[4]; [21]
  Barnyardgrass plant response rating: 80
[4]; Preemergence, 500 g ai/ha
  Plant response rating, Barnyardgrass: 100
[5]; [22]
  Soybean plant response rating: 98
[5]; [23]
  Soybean plant response rating: 100
[5]; Preemergence
  Plant response rating, Soybean: 0
[6]; [22]
  Foxtail, Green plant response rating: 98
[6]; [23]
  Foxtail, Green plant response rating: 98
[6]; Preemergence
  Plant response rating, Foxtail, Green: 80
[6]; [24]
  Foxtail, Green plant response rating: 100
[7]; [22]
  Johnsongrass plant response rating: 85
[7]; [23]
  Johnsongrass plant response rating: 100
[7]; Preemergence
  Plant response rating, Johnsongrass: 50
[7]; [24]
  Johnsongrass plant response rating: 100
[8]; [22]
  Nutsedge, Yellow plant response rating: 50
[8]; [23]
  Nutsedge, Yellow plant response rating: 70
[8]; Preemergence
  Plant response rating, Nutsedge, Yellow: 0
[8]; [24]
  Nutsedge, Yellow plant response rating: 100
[9]; [18]
  Plant response rating, Sedge, Umbrella: 50
[9]; [19]
  Plant response rating, Sedge, Umbrella: 85
[10]; [22]
  Ryegrass, Italian plant response rating: 70
[10]; [23]
  Ryegrass, Italian plant response rating: 100
[10]; Preemergence
  Plant response rating, Ryegrass, Italian: 0
[10]; [24]
  Ryegrass, Italian plant response rating: 100
[11]; [25]
  Bermudagrass plant response rating: 100
[11]; [23]
  Bermudagrass plant response rating: 100
[11]; [26]
  Plant response rating, Bermudagrass: 100
[11]; [24]
  Bermudagrass plant response rating: 100
[12]; [22]
  Goosegrass plant response rating: 85
[12]; [23]
  Goosegrass plant response rating: 100
[12]; Preemergence
  Plant response rating, Goosegrass: 80
[12]; [24]
  Goosegrass plant response rating: 100
[13]; [22]
  Pigweed plant response rating: 100
[13]; [23]
  Pigweed plant response rating: 100
[13]; Preemergence
  Plant response rating, Pigweed: 100
[13]; [24]
  Pigweed plant response rating: 100
[14]; Postemergence, 125 g ai/ha
  Plant response rating, Corn: 50
[14]; [20]
  Corn plant response rating: 70
[14]; [21]
  Corn plant response rating: 0
[14]; Preemergence, 500 g ai/ha
  Plant response rating, Corn: 70
[15]; [18]
  Plant response rating, Barnyardgrass: 0
[15]; [19]
  Plant response rating, Barnyardgrass: 45
[16]; [22]
  Crabgrass, Large plant response rating: 85
[16]; [23]
  Crabgrass, Large plant response rating: 100
[16]; Preemergence
  Plant response rating, Crabgrass, Large: 40
[16]; [24]
  Crabgrass, Large plant response rating: 100
[17]; [22]
  Corn plant response rating: 60
[17]; [23]
  Corn plant response rating: 95
[17]; Preemergence
  Plant response rating, Corn: 60
[17]; [24]
  Corn plant response rating: 98

## Cn1nc(OC(F)F)c(CS(=O)(=O)c2cccc[n+]2[O-])c1C(F)(F)F [Compound 80]
[1]; [18]
  Plant response rating, Ducksalad: 0
[1]; [19]
  Plant response rating, Ducksalad: 85
[2]; Postemergence, 125 g ai/ha
  Plant response rating, Crabgrass, Large: 40
[2]; [20]
  Crabgrass, Large plant response rating: 80
[2]; [21]
  Crabgrass, Large plant response rating: 80
[2]; Preemergence, 500 g ai/ha
  Plant response rating, Crabgrass, Large: 90
[3]; Postemergence, 125 g ai/ha
  Plant response rating, Velvetleaf: 0
[3]; [20]
  Velvetleaf plant response rating: 60
[3]; [21]
  Velvetleaf plant response rating: 0
[3]; Preemergence, 500 g ai/ha
  Plant response rating, Velvetleaf: 70
[4]; Postemergence, 125 g ai/ha
  Plant response rating, Barnyardgrass: 80
[4]; [20]
  Barnyardgrass plant response rating: 90
[4]; [21]
  Barnyardgrass plant response rating: 90
[4]; Preemergence, 500 g ai/ha
  Plant response rating, Barnyardgrass: 100
[5]; [22]
  Soybean plant response rating: 0
[5]; [23]
  Soybean plant response rating: 20
[5]; Preemergence
  Plant response rating, Soybean: 0
[5]; [24]
  Soybean plant response rating: 20
[6]; [22]
  Foxtail, Green plant response rating: 85
[6]; [23]
  Foxtail, Green plant response rating: 100
[6]; Preemergence
  Plant response rating, Foxtail, Green: 85
[6]; [24]
  Foxtail, Green plant response rating: 100
[7]; [22]
  Johnsongrass plant response rating: 85
[7]; [23]
  Johnsongrass plant response rating: 90
[7]; Preemergence
  Plant response rating, Johnsongrass: 85
[7]; [24]
  Johnsongrass plant response rating: 100
[8]; [22]
  Nutsedge, Yellow plant response rating: 75
[8]; [23]
  Nutsedge, Yellow plant response rating: 85
[8]; Preemergence
  Plant response rating, Nutsedge, Yellow: 45
[8]; [24]
  Nutsedge, Yellow plant response rating: 95
[9]; [18]
  Plant response rating, Sedge, Umbrella: 0
[9]; [19]
  Plant response rating, Sedge, Umbrella: 85
[10]; [22]
  Ryegrass, Italian plant response rating: 70
[10]; [23]
  Ryegrass, Italian plant response rating: 85
[10]; Preemergence
  Plant response rating, Ryegrass, Italian: 0
[10]; [24]
  Ryegrass, Italian plant response rating: 90
[11]; [25]
  Bermudagrass plant response rating: 100
[11]; [23]
  Bermudagrass plant response rating: 100
[11]; [26]
  Plant response rating, Bermudagrass: 100
[11]; [24]
  Bermudagrass plant response rating: 100
[12]; [22]
  Goosegrass plant response rating: 98
[12]; [23]
  Goosegrass plant response rating: 100
[12]; Preemergence
  Plant response rating, Goosegrass: 80
[12]; [24]
  Goosegrass plant response rating: 100
[13]; [22]
  Pigweed plant response rating: 0
[13]; [23]
  Pigweed plant response rating: 0
[13]; Preemergence
  Plant response rating, Pigweed: 0
[13]; [24]
  Pigweed plant response rating: 0
[14]; Postemergence, 125 g ai/ha
  Plant response rating, Corn: 0
[14]; [20]
  Corn plant response rating: 50
[14]; [21]
  Corn plant response rating: 0
[14]; Preemergence, 500 g ai/ha
  Plant response rating, Corn: 60
[15]; [18]
  Plant response rating, Barnyardgrass: 0
[15]; [19]
  Plant response rating, Barnyardgrass: 60
[16]; [22]
  Crabgrass, Large plant response rating: 85
[16]; [23]
  Crabgrass, Large plant response rating: 85
[16]; Preemergence
  Plant response rating, Crabgrass, Large: 85
[16]; [24]
  Crabgrass, Large plant response rating: 98
[17]; [22]
  Corn plant response rating: 35
[17]; [23]
  Corn plant response rating: 90
[17]; Preemergence
  Plant response rating, Corn: 30
[17]; [24]
  Corn plant response rating: 98
